Series [1] can be described thus: Kinetic solubility of the compound in phosphate buffer at pH 6.5 by nephelometry analysis. The series is classed as physicochemical. The settings on record: read-out: Kinetic_solubility.
Series [2] in a line: Kinetic solubility of the compound in 0.01M HCl at pH 2 by nephelometry analysis. The series is classed as physicochemical. Particulars: read-out: Kinetic_solubility.
A further series in a line: physchem. The settings on record: octanol/water, pH 7.4.
The nature of series [3]: Plasma concentration in Swiss mouse at 30 mg/kg, po after 8 hrs. The series is classed as ADME, organism-based. Details: dose 30 mg/kg, route oral.
The nature of series [4]: Plasma concentration in Swiss mouse at 30 mg/kg, po after 0.5 hrs. Type of series: ADME, organism-based. On the set-up: dose 30 mg/kg, route oral.
For series [5], the system named is Plasma. The series can be described thus: Average plasma concentration in Swiss mouse at 30 mg/kg, po after up to 8 hrs. Details: dose 30 mg/kg, route oral. Type of series: ADME, organism-based. The settings on record: in vivo.
Series [6] concerns Plasma. The series can be described thus: Average plasma concentration in Swiss mouse at 30 mg/kg, po after up to 24 hrs. Particulars: in vivo. The series is classed as ADME, organism-based. On the set-up: dose 30 mg/kg, route oral.
Series [7] is described as follows: Plasma concentration in Swiss mouse at 30 mg/kg, po after 24 hrs. Type of series: ADME, organism-based. On the set-up: dose 30 mg/kg, route oral.

Values after ≈ are worked out from the molar mass of the structure shown. Some results are limits rather than exact numbers.

One may read the logD as the decadic logarithm of the distribution of all forms, ionised or not, between an organic phase and buffer at a given pH. A higher logD goes with higher lipophilicity.

With `CN1CCN(C(=O)c2ccc(-c3cnc(N)c(-c4ccc(C(F)(F)F)cc4)c3)cc2)CC1`, the values for the solubility kinetic in series [1] and in series [2] were 25 µg/mL (≈ 56.8 µM) and over 100 µg/mL, respectively. Also, in the series “physchem”, the logD worked out at 3.9.

Regarding `Nc1ncc(-c2ccc(C(=O)N3CCNCC3)cc2)cc1-c1ccc(C(F)(F)F)nc1`, the solubility kinetic in series [1] is 50 µg/mL (≈ 117 µM); in series [2], over 100 µg/mL. In addition, the logD in the series “physchem” was found to be 2.4.

For `Nc1ncc(-c2ccc(C(=O)N3CCNCC3)cc2)cc1-c1ccc(C(F)(F)F)cc1`, the solubility kinetic in series [1] is 25 µg/mL (≈ 58.6 µM); in series [2], over 100 µg/mL. In “physchem”, this compound gave a logD of 3.3.

Turning to `COc1ccc(-c2cc(-c3ccc(-c4nnc(C)o4)cc3)cnc2N)cn1`, the solubility kinetic is 12.5 µg/mL (≈ 34.8 µM) in series [1] and over 100 µg/mL in series [2]. In “physchem”, the logD was determined as 2.6.

In the case of `COc1ccc(-c2cc(-c3ccc4nccn4c3)cnc2N)cn1`, the solubility kinetic in series [1] is 12.5 µg/mL (≈ 39.4 µM); in series [2] it was over 100 µg/mL. This compound also showed a logD in “physchem” of 2.4.

On to `COc1ccc(-c2cc(-c3ccc4cnn(C)c4c3)cnc2N)cn1`, for which the solubility kinetic in series [1] is 6.3 µg/mL (≈ 19 µM); in series [2], over 100 µg/mL. Moreover, in the series “physchem”, the logD was found to be 3.

For the compound `COc1ccc(-c2cc(-c3ccc4ncccc4c3)cnc2N)cn1`, the solubility kinetic in series [1] is 6.3 µg/mL (≈ 19.2 µM); in series [2], over 100 µg/mL. For the same compound, the logD in the series “physchem” amounted to 2.9.

In the case of `COc1ccc(-c2cc(-c3ccc(C(=O)O)cc3)cnc2N)cn1`, the solubility kinetic in series [1] was determined as 6.3 µg/mL (≈ 19.6 µM); in series [2], 12.5 µg/mL (≈ 38.9 µM). Besides, the logD in “physchem” was determined as 0.8.

Regarding `COc1ccc(-c2cc(-c3ccc(C(N)=O)cc3)cnc2N)cn1`, the values for the solubility kinetic in series [1] and in series [2] were 12.5 µg/mL (≈ 39 µM) and over 100 µg/mL, respectively. In series [3], this compound gave a concentration at 8 h of 1300 nM. In addition, the concentration at 0.5 h in series [4] was determined as 10600 nM. Further, the Cave is 8200 nM in the series on Plasma [5] and 2400 nM with Plasma [6]. The concentration at 24 h in series [7] stood at 10 nM. The logD in the series “physchem” was found to be 1.7.

Take `COc1ccc(-c2cc(-c3cccc(C(N)=O)c3)cnc2N)cn1`: the figures for the solubility kinetic in series [1] and in series [2] were 12.5 µg/mL (≈ 39 µM) and over 100 µg/mL, respectively. The same compound yielded a logD in the series “physchem” of 1.7.

Turning to `COc1ccc(-c2cc(-c3ccc(C(=O)N(C)C)cc3)cnc2N)cn1`, the solubility kinetic in series [1] and in series [2] was over 100 µg/mL in each case. Also, the concentration at 8 h in series [3] worked out at 6400 nM. Also, the concentration at 0.5 h in series [4] was 30800 nM. In the series on Plasma [5], this compound yielded a Cave of 25100 nM. In addition, in series [7], the concentration at 24 h is under 1 nM. The compound further yielded a logD in the series “physchem” of 2.1.

With `CNC(=O)c1ccc(-c2cnc(N)c(-c3ccc(OC)nc3)c2)cc1`, the solubility kinetic in series [1] and in series [2] was 50 µg/mL (≈ 150 µM) throughout. Also, the logD in “physchem” was 1.8.

On to `COc1ccc(-c2cc(-c3ccc(C(=O)NCCCO)cc3)cnc2N)cn1`, for which the values for the solubility kinetic in series [1] and in series [2] were 12.5 µg/mL (≈ 33 µM) and over 100 µg/mL, respectively.

Turning to `COc1ccc(-c2cc(-c3ccc(C(=O)NCCN4CCOCC4)cc3)cnc2N)cn1`, the solubility kinetic in series [1] and in series [2] was over 100 µg/mL each time. In the series “physchem”, this compound showed a logD of 1.9.

For the compound `COc1ccc(-c2cc(-c3ccc(C(=O)NCCN4CCCC4)cc3)cnc2N)cn1`, the solubility kinetic in series [1] and in series [2] was over 100 µg/mL throughout. In “physchem”, this compound came in with a logD of 2.5.

In the case of `COc1ccc(-c2cc(-c3ccc(C(=O)N4CCN(C)CC4)cc3)cnc2N)cn1`, the solubility kinetic in series [1] and in series [2] was over 100 µg/mL throughout. In “physchem”, the log distribution coefficient (logD) came to 2.

Turning to `COc1ccc(-c2cc(-c3ccc(C(=O)N4CCOCC4)cc3)cnc2N)cn1`, the solubility kinetic in series [1] and in series [2] was 25 µg/mL (≈ 64 µM) in each case. This compound also had a concentration at 8 h in series [3] of 800 nM. The concentration at 0.5 h in series [4] worked out at 10300 nM. In the series on Plasma [5], this compound came in with a Cave of 7800 nM. Also, the logD in the series “physchem” was 2.

For `Nc1ncc(-c2ccc(C(=O)N3CCOCC3)cc2)cc1-c1ccc(C(F)(F)F)nc1`, the results for the solubility kinetic in series [1] and in series [2] were 25 µg/mL (≈ 58.4 µM) and over 100 µg/mL, respectively. In series [3], this compound returned a concentration at 8 h of 840 nM. For the same compound, in series [4], the concentration at 0.5 h came out at 4110 nM. In addition, the Cave with Plasma [5] came out at 3400 nM. Moreover, the log distribution coefficient (logD) in the series “physchem” was determined as 2.4.

In the case of `Nc1ncc(-c2ccc(C(=O)N3CCOCC3)cc2)cc1-c1ccc(C(F)(F)F)cc1`, the solubility kinetic is 6.3 µg/mL (≈ 14.7 µM) in series [1] and over 100 µg/mL in series [2]. In series [3], the concentration at 8 h was determined as 50 nM. Further, the concentration at 0.5 h in series [4] was 300 nM. Besides, the Cave in the series with Plasma [5] stood at 200 nM; in the series on Plasma [6], 100 nM. The same compound displayed a concentration at 24 h in series [7] of 1 nM. For the same compound, in the series “physchem”, the logD stood at 3.1.

Take `CN1CCN(C(=O)c2ccc(-c3cnc(N)c(-c4ccc(C(F)(F)F)nc4)c3)cc2)CC1`: the solubility kinetic in series [1] and in series [2] was over 100 µg/mL throughout. In addition, the logD in “physchem” turned out to be 2.9.

In the case of `COc1ccc(-c2cc(-c3cccc(S(C)(=O)=O)c3)cnc2N)cn1`, the solubility kinetic in series [1] is 25 µg/mL (≈ 70.3 µM); in series [2], over 100 µg/mL. The compound further had a pH-dependent lipophilicity (logD) in “physchem” of 2.3.

Regarding `COc1ccc(-c2cc(-c3ccc(S(=O)(=O)N(C)C)cc3)cnc2N)cn1`, the solubility kinetic in series [1] is 6.3 µg/mL (≈ 16.4 µM); in series [2] it was over 100 µg/mL. Also, the logD in the series “physchem” is 2.8.

On to `CNS(=O)(=O)c1ccc(-c2cnc(N)c(-c3ccc(OC)nc3)c2)cc1`, for which the solubility kinetic is 12.5 µg/mL (≈ 33.7 µM) in series [1] and over 100 µg/mL in series [2]. In addition, the logD in the series “physchem” was 2.2.

Regarding `COc1ccc(-c2cc(-c3ccc(S(N)(=O)=O)cc3)cnc2N)cn1`, the solubility kinetic in series [1] was 12.5 µg/mL (≈ 35.1 µM); in series [2] it was over 100 µg/mL. The compound further showed a log distribution coefficient (logD) in the series “physchem” of 1.8.

With `COc1ccc(-c2cc(-c3ccc(S(=O)(=O)NC4CC4)cc3)cnc2N)cn1`, the solubility kinetic in series [1] was 6.3 µg/mL (≈ 15.9 µM); in series [2], over 100 µg/mL. In addition, the logD in the series “physchem” amounted to 2.7.

On to `COc1ccc(-c2cc(-c3ccc(S(=O)(=O)N4CCOCC4)cc3)cnc2N)cn1`, for which the solubility kinetic was 6.3 µg/mL (≈ 14.8 µM) in series [1] and over 100 µg/mL in series [2]. Besides, the logD in “physchem” turned out to be 2.7.

Turning to `COc1ccc(-c2cc(-c3ccc(S(=O)(=O)N4CCN(C)CC4)cc3)cnc2N)cn1`, the figures for the solubility kinetic in series [1] and in series [2] were 25 µg/mL (≈ 56.9 µM) and over 100 µg/mL, respectively. This compound gave a logD in “physchem” of 2.7.

As to `COc1ccc(-c2cc(-c3ccc(NS(C)(=O)=O)cc3)cnc2N)cn1`, the solubility kinetic in series [1] is 25 µg/mL (≈ 67.5 µM); in series [2], over 100 µg/mL. Besides, in the series “physchem”, the logD came out at 2.2.

In the case of `COc1ccc(-c2cc(-c3ccc(S(C)(=O)=O)c(F)c3)cnc2N)cn1`, the figures for the solubility kinetic in series [1] and in series [2] were 6.3 µg/mL (≈ 16.9 µM) and over 100 µg/mL, respectively. In “physchem”, this compound came in with a logD of 2.5.

Turning to `COc1ccc(-c2cc(-c3ccc(S(C)(=O)=O)cc3C(F)(F)F)cnc2N)cn1`, the solubility kinetic in series [1] is 12.5 µg/mL (≈ 29.5 µM); in series [2], over 100 µg/mL. The compound also came in with a logD in the series “physchem” of 2.7.

In the case of `COc1ccc(-c2cc(-c3ccc(OC(F)(F)F)cc3)cnc2N)cn1`, the solubility kinetic in series [1] was 1.6 µg/mL (≈ 4.43 µM); in series [2] it was over 100 µg/mL. In addition, the logD in the series “physchem” stood at 4.3.

Consider `COc1ccc(-c2cc(-c3ccc(C(F)(F)F)cc3)cnc2N)cn1`, for which the solubility kinetic in series [1] was 1.6 µg/mL (≈ 4.63 µM); in series [2], over 100 µg/mL. The logD in the series “physchem” is 4.2.

As for `COc1ccc(-c2cnc(N)c(-c3ccc(OC)nc3)c2)cn1`, the solubility kinetic in series [1] was 25 µg/mL (≈ 81.1 µM); in series [2], over 100 µg/mL. Also, the logD in “physchem” is 2.8.

With `COc1ccc(-c2cc(-c3ccc(-n4cncn4)cc3)cnc2N)cn1`, the results for the solubility kinetic in series [1] and in series [2] were 6.3 µg/mL (≈ 18.3 µM) and over 100 µg/mL, respectively. In the series “physchem”, this compound showed a logD of 2.4.

As for `COc1ccc(-c2cc(-c3ccc(-n4cccn4)cc3)cnc2N)cn1`, the solubility kinetic was 3.1 µg/mL (≈ 9.03 µM) in series [1] and over 100 µg/mL in series [2]. In the series “physchem”, this compound showed a logD of 3.1.
